The record followed here is PubChem BioAssay AID330 (DTP/NCI, 2004).

The test system of this test is P388 leukemia ip, CD2F1 mice, survival T/C. As to the kind of experiment: NCI In Vivo Anticancer Drug Screen. Data for tumor model P388 Leukemia (intraperitoneal) in CD2F1 (CDF1) mice. The following applies: endpoint: median survival time, higher = longer survival. The essentials:
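Mice carrying the transplanted tumor received test compound or vehicle. Survival was recorded in each group, and the value is the treated-group measurement divided by that of the vehicle-treated control group.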

[1] abbreviates: dose: 50.0 mg/kg/injection, schedule: Q01DX005 (ip), vehicle: saline.
Setting [2] is: dose: 100.0 mg/kg/injection, schedule: Q01DX005 (ip), vehicle: saline.
Setting [3] is: dose: 50.0 mg/kg/injection, schedule: Q01DX005 (ip), vehicle: saline with Tween-80.
Where [4] appears, read: dose: 100.0 mg/kg/injection, schedule: Q01DX005 (ip), vehicle: saline with Tween-80.
Where [5] appears, read: dose: 200.0 mg/kg/injection, schedule: Q01DX005 (ip), vehicle: saline with Tween-80.
Setting [6] is: dose: 25.0 mg/kg/injection, schedule: Q01DX009 (ip), vehicle: saline.
Where [7] appears, read: dose: 50.0 mg/kg/injection, schedule: Q01DX009 (ip), vehicle: saline with Tween-80.
Where [8] appears, read: dose: 50.0 mg/kg/injection, schedule: Q01DX009 (ip), vehicle: saline.
Setting [9] is: dose: 100.0 mg/kg/injection, schedule: Q01DX009 (ip), vehicle: saline.
[10] abbreviates: dose: 200.0 mg/kg/injection, schedule: Q01DX009 (ip), vehicle: saline.
Setting [11] is: dose: 60.0 mg/kg/injection, schedule: Q01DX005 (ip), vehicle: saline with Tween-80.
[12] abbreviates: dose: 240.0 mg/kg/injection, schedule: Q01DX005 (ip), vehicle: saline with Tween-80.

Where “and” joins values, the source holds several entries; their conditions need not be identical. Equal entries are not always repeated. Toxic doses and inconclusive results are not listed.

In the case of `CS(=O)(=O)CS(=O)(=O)OCCCl`, the T/C by setting is: (dose: 6.25 mg/kg/injection, schedule: Q01DX005 (ip), vehicle: dextrose) 109 % of control; (dose: 6.25 mg/kg/injection, schedule: Q01DX005 (ip), vehicle: distilled water + Tween-80) 114 % of control; (dose: 6.25 mg/kg/injection, schedule: Q01DX005 (iv), vehicle: dextrose) 109 % of control; (dose: 10.0 mg/kg/injection, schedule: Q01DX005 (ip), vehicle: saline) 121 % of control; (dose: 12.5 mg/kg/injection, schedule: Q01DX005 (iv), vehicle: dextrose) 118 % of control; (dose: 22.0 mg/kg/injection, schedule: Q01DX005 (ip), vehicle: saline) 166 % of control. The T/C runs as follows: (dose: 25.0 mg/kg/injection, schedule: Q01DX005 (ip), vehicle: dextrose) 154 % of control; (dose: 33.0 mg/kg/injection, schedule: Q01DX005 (ip), vehicle: other) 230 % of control; (dose: 33.0 mg/kg/injection, schedule: Q01DX005 (ip), vehicle: saline) 198 % of control; (dose: 33.0 mg/kg/injection, schedule: Q01DX005 (ip), vehicle: water) 201 % of control; (dose: 33.5 mg/kg/injection, schedule: Q01DX005 (ip), vehicle: saline) 209 % of control; (dose: 50.0 mg/kg/injection, schedule: Q01DX005 (ip), vehicle: dextrose) 241 % of control and 330 % of control. The T/C is, setting by setting: (dose: 50.0 mg/kg/injection, schedule: Q01DX005 (ip), vehicle: distilled water + Tween-80) 250 % of control; (dose: 50.0 mg/kg/injection, schedule: Q01DX005 (ip), vehicle: other) 588 % of control; under setting [1], 245 % of control and 267 % of control; (dose: 50.0 mg/kg/injection, schedule: Q01DX005 (ip), vehicle: water) 254 % of control and 285 % of control; (dose: 50.0 mg/kg/injection, schedule: Q01DX005 (iv), vehicle: dextrose) 196 % of control; (dose: 75.0 mg/kg/injection, schedule: Q01DX005 (ip), vehicle: dextrose) 582 % of control. The T/C was 588 % of control (dose: 75.0 mg/kg/injection, schedule: Q01DX005 (ip), vehicle: other); 156 % of control (dose: 75.0 mg/kg/injection, schedule: Q01DX005 (ip), vehicle: saline); 294 % of control (dose: 75.0 mg/kg/injection, schedule: Q01DX005 (ip), vehicle: water); 535 % of control (dose: 100.0 mg/kg/injection, schedule: Q01DX005 (ip), vehicle: dextrose); 535 % of control (dose: 100.0 mg/kg/injection, schedule: Q01DX005 (ip), vehicle: distilled water + Tween-80); 588 % of control (dose: 100.0 mg/kg/injection, schedule: Q01DX005 (ip), vehicle: other). The T/C is 151 % of control and 200 % of control under setting [2]; 294 % of control (dose: 100.0 mg/kg/injection, schedule: Q01DX005 (ip), vehicle: water).

`Cc1nn(-c2ccccc2)c(=O)n2nnnc12`: the T/C was 96 % of control (dose: 100.0 mg/kg/injection, schedule: Q01DX001 (ip), vehicle: saline with Tween-80); 94 % of control (dose: 200.0 mg/kg/injection, schedule: Q01DX001 (ip), vehicle: saline with Tween-80); 96 % of control (dose: 400.0 mg/kg/injection, schedule: Q01DX001 (ip), vehicle: saline with Tween-80).

Take `Nc1nc(SCC(=O)O)[nH]c(=O)c1NS(=O)(=O)c1ccc([N+](=O)[O-])cc1`: the T/C (dose: 60.0 mg/kg/injection, schedule: Q01DX005 (ip), vehicle: Klucel (hydroxypropylcellulose) (HPC)) was 96 % of control; the T/C (dose: 120.0 mg/kg/injection, schedule: Q01DX005 (ip), vehicle: Klucel (hydroxypropylcellulose) (HPC)) is 98 % of control; the T/C (dose: 240.0 mg/kg/injection, schedule: Q01DX005 (ip), vehicle: Klucel (hydroxypropylcellulose) (HPC)) is 102 % of control.

For `CC1=NN(C(C)(C)C)[Si](C)(C)C1`, the T/C runs as follows: (dose: 25.0 mg/kg/injection, schedule: Q01DX005 (ip), vehicle: Klucel (hydroxypropylcellulose) (HPC)) 96 % of control; (dose: 50.0 mg/kg/injection, schedule: Q01DX005 (ip), vehicle: Klucel (hydroxypropylcellulose) (HPC)) 93 % of control; (dose: 100.0 mg/kg/injection, schedule: Q01DX005 (ip), vehicle: Klucel (hydroxypropylcellulose) (HPC)) 97 % of control.

As for `O=C(O)c1cn(O)ccc1=O`, the T/C by setting is: under setting [3], 94 % of control; under setting [4], 100 % of control; under setting [5], 97 % of control.

For the molecule `CCOC(=O)C1=C(C#N)C2(CCC(OCc3ccccc3)CC2)C(=O)O1` (stereo not drawn), the T/C (dose: 25.0 mg/kg/injection, schedule: Q01DX009 (ip), vehicle: saline with Tween-80) was 90 % of control; the T/C under setting [6] was 104 % of control; the T/C under setting [7] is 92 % of control; the T/C under setting [8] is 104 % of control and 106 % of control and 100 % of control; the T/C (dose: 100.0 mg/kg/injection, schedule: Q01DX009 (ip), vehicle: saline with Tween-80) is 119 % of control; the T/C under setting [9] is 108 % of control and 116 % of control and 102 % of control. Further, the T/C by setting is: (dose: 200.0 mg/kg/injection, schedule: Q01DX009 (ip), vehicle: saline with Tween-80) 123 % of control; under setting [10], 119 % of control and 100 % of control.

Regarding `O=C1c2ccccc2C(=O)N1N1C(=O)c2ccccc2C1=O`, the T/C (dose: 100.0 mg/kg/injection, schedule: Q04DX003 (ip), vehicle: saline with Tween-80) is 100 % of control; the T/C (dose: 200.0 mg/kg/injection, schedule: Q04DX003 (ip), vehicle: saline with Tween-80) was 100 % of control; the T/C (dose: 400.0 mg/kg/injection, schedule: Q04DX003 (ip), vehicle: saline with Tween-80) was 100 % of control.

`C1=CCC(C(Nc2nncs2)Nc2nncs2)CC1` (stereo not drawn): the T/C is 107 % of control under setting [11] and 108 % of control under setting [12].

For `CC(=O)OCCN1CCOC(O)(c2cccc(C(F)(F)F)c2)C1` (stereo not drawn), the T/C was 115 % of control under setting [11]; 108 % of control (dose: 120.0 mg/kg/injection, schedule: Q01DX005 (ip), vehicle: saline with Tween-80); 113 % of control under setting [12].

`CCN(Cc1cccc(S(=O)(=O)O)c1)c1ccc(C(=C2C=CC(=[N+](CC)Cc3cccc(S(=O)(=O)O)c3)C=C2)c2ccc(S(=O)(=O)O)cc2)cc1`: the T/C is 100 % of control under setting [1]; 99 % of control under setting [2]; 94 % of control (dose: 200.0 mg/kg/injection, schedule: Q01DX005 (ip), vehicle: saline).

Regarding `Cc1[nH]nc2c1NC(=O)OC2C` (stereo not drawn), the T/C is, setting by setting: under setting [3], 108 % of control; under setting [4], 99 % of control; under setting [5], 101 % of control.

`OCN(CO)c1nc(N(CO)CO)nc(N(CO)CO)n1`: the T/C was 109 % of control (dose: 6.3 mg/kg/injection, schedule: Q01DX009 (ip), vehicle: saline with Tween-80); 106 % of control (dose: 12.5 mg/kg/injection, schedule: Q01DX009 (ip), vehicle: saline with Tween-80); 108 % of control under setting [7].

In the case of `CC(=O)CC(=O)CCC(=O)O`, the T/C is 100 % of control under setting [6]; 105 % of control under setting [8]; 110 % of control under setting [9]; 117 % of control under setting [10]; 94 % of control (dose: 400.0 mg/kg/injection, schedule: Q01DX009 (ip), vehicle: saline).

For `CC(=O)O[C@@H]1C[C@H](O)[C@@]23COC(O)[C@H]1[C@@H]2C[C@@H](O)[C@@]1(C)C2C(=O)C[C@@H](c4ccoc4)[C@]2(C)CC[C@@H]13` (stereo partly drawn), the T/C (dose: 2.4 mg/kg/injection, schedule: Q01DX009 (ip), vehicle: Klucel (hydroxypropylcellulose) (HPC)) is 99 % of control; the T/C (dose: 18.75 micrograms/kg/injection, schedule: Q01DX009 (ip), vehicle: Klucel (hydroxypropylcellulose) (HPC)) was 107 % of control; the T/C (dose: 37.5 micrograms/kg/injection, schedule: Q01DX009 (ip), vehicle: Klucel (hydroxypropylcellulose) (HPC)) was 117 % of control; the T/C (dose: 75.0 micrograms/kg/injection, schedule: Q01DX009 (ip), vehicle: Klucel (hydroxypropylcellulose) (HPC)) is 96 % of control; the T/C (dose: 150.0 micrograms/kg/injection, schedule: Q01DX009 (ip), vehicle: Klucel (hydroxypropylcellulose) (HPC)) was 101 % of control.
